Test results: PubChem BioAssay (NCI)
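Cells were grown in 96-well plates and exposed to each compound for 48 hours at five concentrations; endpoints were interpolated linearly between bracketing concentrations, or set to the highest concentration if not reached. GI50: concentration for 50% inhibition of growth. TGI: total growth inhibition.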

Assays:
Assay in all cases: NCI tumour cell line growth inhibition, 48 h
DLD-1 colon = system: DLD-1 colon
SNB-78 CNS = system: SNB-78 CNS
M19-MEL melanoma = system: M19-MEL melanoma
RXF-631 renal = system: RXF-631 renal
KM20L2 colon = system: KM20L2 colon
XF 498 CNS = system: XF 498 CNS
DMS 114 small cell lung = system: DMS 114 small cell lung
HOP-18 NSCLC = system: HOP-18 NSCLC
MDA-N = system: MDA-N

Row | SMILES | TGI (DLD-1 colon) [µM] | TGI (SNB-78 CNS) [µM] | TGI (M19-MEL melanoma) [µM] | TGI (RXF-631 renal) [µM] | TGI (KM20L2 colon) [µM] | TGI (XF 498 CNS) [µM] | TGI (DMS 114 small cell lung) [µM] | TGI (HOP-18 NSCLC) [µM] | further results
1 | COc1ccc(OC(C)C(=O)O)c2c(=O)ccccc12 (centres undefined) | > 100 | > 100 | > 100 | > 100 | > 100 | > 100 | > 100 |  | 
2 | O/N=C/c1ccc(O)c(O)c1 | > 100 | > 100 | > 100 |  | > 100 | > 100 | > 100 |  | 
3 | CC(=O)[CH-]C(=O)c1ccccc1.CC(=O)[CH-]C(=O)c1ccccc1.[O-]c1ccc2c(c1)OCO2.[O-]c1ccc2c(c1)OCO2.[Ti+4] | > 100 |  | 54.5 |  | > 100 |  |  | > 100 | GI50 (DLD-1 colon): 38.3 µM; GI50 (M19-MEL melanoma): 21.9 µM; GI50 (KM20L2 colon): 67.9 µM; GI50 (HOP-18 NSCLC): 37.7 µM
4 | CCC(CO)Nc1nc2c(c(=O)n(C)c(=O)n2C)n1CCO (centres undefined) |  | 53.5 | > 100 |  | > 100 |  |  |  | 
5 | Nc1ccc(/C=C/c2ccc3cccnc3c2)cc1 |  |  |  |  |  |  |  |  | TGI (MDA-N): > 100 µM
6 | CC(SCc1ccccc1)C(=O)O (centres undefined) |  |  |  |  |  |  |  |  | TGI (MDA-N): > 100 µM
7 | O=C1Nc2cc(F)ccc2C1=O | > 100 | > 100 | > 100 |  | > 100 | > 100 | > 100 | > 100 | 
8 | CC(=O)Oc1ccc2c(c1)C(=O)c1nc(C)c(C)nc1C2=O | > 100 | > 100 | 9.42 | > 91.9 | > 100 | > 100 | > 76.4 | > 100 | 
9 | CCCCN(CCCC)CC(C(C)=O)C(c1ccccc1)c1c(O)c2ccccc2oc1=O (centres undefined) | > 100 | > 100 | > 100 | > 100 | > 100 | > 100 | > 100 | > 100 | 
10 | C1=CCCC=CCC1.C[PH+](C)C.C[PH+](C)C.C[PH+](C)C.[Cl-].[Ir] | > 100 | > 100 | > 100 |  | > 100 |  |  | > 100 | GI50 (DLD-1 colon): > 100 µM; GI50 (SNB-78 CNS): > 100 µM; GI50 (M19-MEL melanoma): 39.8 µM; GI50 (KM20L2 colon): > 100 µM; GI50 (HOP-18 NSCLC): > 100 µM
11 | O=c1c2cc3ccccc3n2c(=O)c2cc3ccccc3n12 | > 100 | > 100 | > 100 |  | > 100 | > 100 | > 100 | > 100 | 
12 | O=C(O)c1ccc(SSc2ccc(C(=O)O)cn2)nc1 |  |  |  |  |  |  |  |  | TGI (MDA-N): > 100 µM
13 | c1ccc(OC2=NC3=S(S2)SC(Oc2ccccc2)=N3)cc1 | 35 | 48.1 | 34.7 | 52.1 | 45 | 32 | 41 |  | 
14 | C[C@]12C[C@H](O)[C@H]3[C@@H](CCC4=CC(=O)CC[C@@]43C)[C@@H]1CC[C@@H]2c1csc(-c2ccccc2)n1 |  |  |  |  |  |  |  |  | TGI (MDA-N): > 100 µM
15 | C=C1C(=O)O[C@H]2C[C@@H]1C(=O)CC(C)CCCC(C)=CCC[C@@]2(C)O (some centres undefined) |  |  |  |  |  |  |  |  | TGI (MDA-N): > 25 µM
16 | NC(Cc1ccccc1)c1nccs1 (centres undefined) |  |  |  |  |  |  |  |  | TGI (MDA-N): > 100 µM
17 | COc1cc2cnc3c4cc(OCc5ccccc5)ccc4ccc3c2cc1OC | > 100 | 65.4 | > 100 | 98.8 | > 100 |  | 80.4 | > 100 | 
18 | O=C1NC2C(O)CCCCC2C12CCCCC2 (centres undefined) | > 100 | > 100 | > 100 | > 100 |  | > 100 | > 100 | > 100 | 
19 | C[CH2][Sn]([CH2]C)([O]C(=O)c1ccc(F)cc1)[O]C(=O)c1ccc(F)cc1 | > 65.8 | 37.9 |  | 32.3 | > 100 | 37.3 | 39.9 | 29.6 | GI50 (DLD-1 colon): 23.9 µM; GI50 (SNB-78 CNS): 20 µM; GI50 (RXF-631 renal): 17.5 µM; GI50 (KM20L2 colon): 72.6 µM; GI50 (XF 498 CNS): 20.2 µM; GI50 (HOP-18 NSCLC): 16.1 µM; GI50 (DMS 114 small cell lung): 18.8 µM
20 | Nc1c2ccccc2nc2c(C(=O)Nc3ccc(S(N)(=O)=O)cc3)cccc12 | > 100 | > 100 | > 100 |  | > 100 | > 100 | > 100 |  | 
21 | C[C@H]1C=C2C(=O)O[C@H]3CC[C@@H](C1)[C@@]23O | 10.7 | 9.94 | 15.1 |  | 16.2 |  | 8.69 | 13.4 | 
22 | CC1c2[nH]c3ccccc3c2CCN1O (centres undefined) | > 100 | > 100 | > 100 | > 100 | > 100 |  | > 100 | > 100 | 
